# Data: patent US20220184071A1, “GEPOTIDACIN FOR USE IN THE TREATMENT OF BACTERIAL URINARY TRACT INFECTIONS” (GlaxoSmithKline Intellectual Property Development Limited, priority 2019, published 2022)
# “Also recorded” adds a separate entry of the source. Like-named read-outs stand apart in the source and are kept apart here.
# Tests used:
# Veillonella parvula = experiment: MIC by agar dilution, drug-resistant isolates; type: cell-based
# Description: (§1) Antimicrobial activity was determined by agar dilution using the Clinical and Laboratory Standards Institute (CLSI) recommended procedure.
# (§2) The compounds were tested in serial two-fold dilutions and the minimum inhibitory concentration (MIC) was determined as the lowest concentration of the compound that inhibited visible growth. Gepotidacin was tested against 333 gram-negative anaerobic and 203 gram-positive anaerobic isolates collected from clinical samples in North America and Europe from 2000 to 2017; the majority collected from 2013 to 2016.
# (§3) Additional analysis was performed from the results of the study described in Method 1 above, to determine the in vitro activity of gepotidacin against gram-negative and gram-positive anaerobic organisms with resistance to ceftriaxone, clindamycin, imipenem, metronidazole, moxifloxacin and piperacillin/tazobactam.
# Bacteroides vulgatus = experiment: MIC by agar dilution, drug-resistant isolates; type: cell-based
# Description: as §1, §2, §3
# [1] = tested on: Porphyromonas, non-speciated; experiment: MIC by agar dilution, drug-resistant isolates; type: cell-based; conditions: 1 isolate
# Description: as §1, §2, §3
# Prevotella buccae = experiment: MIC by agar dilution, drug-resistant isolates; type: cell-based; conditions: 4 isolates
# Description: as §1, §2, §3
# [2] = tested on: Staphylococcus saprophyticus; experiment: MIC by CLSI broth microdilution in CAMHB and urine, Example 1 Method 3; type: cell-based; conditions: for Mean MIC: n = 6; for MIC: Staphylococcus saprophyticus
# Description: Antimicrobial activity was determined by broth microdilution using the CLSI recommended procedure.
# The compounds were tested in serial two-fold dilutions and the minimum inhibitory concentration (MIC) was determined as the lowest concentration of the compound that inhibited visible growth.
# In particular, gepotidacin was tested against 6 strains of Staphylococcus saprophyticus from the collection of isolates at Laboratory Specialists, Inc., Westlake, Ohio.
# Levofloxacin was included as the comparator in the study to determine the effect of urine on the in vitro activity of gepotidacin against Staphylococcus saprophyticus. MICs were determined by broth microdilution according CLSI methods.
# The data shown in the table below are results from an in vitro study conducted with the same S. saprophyticus isolates described above, to determine the effect of urine on the in vitro activity of gepotidacin and levofloxacin against S. saprophyticus. Study strains were tested for MICs (minimum inhibitory concentrations) according to reference CLSI broth microdilution method using cation-adjusted Mueller Hinton Broth (CAMHB) and with the addition of 25%, 50% and 100% urine (not pH adjusted, pH 6.42) and 100% urine (pH adjusted, 7.31 and 8.07).
# [3] = tested on: All Qualifying Uropathogens; experiment: Phase IIa microbiological response (micro-ITT population); type: in vivo, human; conditions: for Microbiological Failure, n (%) (95% Confidence Interval): n 8
# [4] = Exposure in epithelial lining fluid (ELF) and alveolar macrophages (AM), healthy subjects; type: in vivo; conditions: human, single 1000 mg IV infusion over 2 hours
# Description: Antibiotic target site exposures play a key role as suboptimal levels may lead to therapeutic failure and resistance. Across multiple clinical studies, exposures to gepotidacin were assessed in plasma and other matrices, such as urine, saliva, epithelial lining fluid (ELF) and Alveolar Macrophages (AM).
# Bronchoalveolar lavage samples were collected to determine gepotidacin exposures in ELF and AM following a single 1000 mg IV infusion over 2 hours to healthy subjects. Saliva exposure was assessed in healthy volunteers following 1500 mg oral single dose. Gepotidacin exposures in urine was assessed in women with acute uUTI following 1500 mg BID oral doses for 5 days.
# [5] = tested on: Citrobacter freundii complex; experiment: Phase IIa non-qualifying baseline uropathogen MIC; type: cell-based; conditions: baseline uropathogen recovered at <10^5 CFU/mL
# Description: (§4) This phase IIa single center study evaluated the safety, tolerability, pharmacokinetics, and efficacy of oral gepotidacin 1500 mg BID for 5 days in female subjects with acute cystitis. Clean catch mid-stream urine specimens were obtained for quantitative culture by standard methods. Urine samples were taken from all participants pre-treatment (baseline) and at all post-baseline visits. All urine samples were sent to a central laboratory (PPD Global Clinical Laboratories, Highland Heights, Ky., USA) for Gram stain, quantitative culture, pathogen identification and susceptibility testing. See FIG. 1 for participant disposition and study outline.
# (§5) Susceptibility testing by CLSI broth microdilution and gradient diffusion (fosfomycin only) was conducted (CLSI, 2015, Methods for dilution antimicrobial susceptibility tests for bacteria that grow aerobically; approved standard-tenth edition; and CLSI, 2018. Performance Standards for Antimicrobial Susceptibility Testing; Twenty-seventh Informational Supplement M100-S28). Inclusion in the microbiological intent-to-treat population (micro-ITT), required growth of a qualifying baseline uropathogen (≥10^5 CFU/mL). See FIG. 2 for the baseline algorithm.
# Acinetobacter pittii = experiment: Phase IIa non-qualifying baseline uropathogen MIC; type: cell-based; conditions: baseline uropathogen recovered at <10^5 CFU/mL
# Description: as §4, §5
# E. coli = experiment: Phase IIa baseline uropathogen susceptibility testing (CLSI broth microdilution); type: cell-based, Escherichia coli; conditions: Escherichia coli, read-out: GEP MIC
# Description: as §4, §5
# C. koseri = experiment: as above; type: cell-based, Citrobacter koseri; conditions: Citrobacter koseri; Participant 1; read-out: GEP MIC
# Description: as §4, §5
# Providencia rettgeri = experiment: MIC, Example 5 Method 1; type: cell-based; conditions: at least one isolate tested
structure (smiles),measurement,setting,value
"O=c1ccc2ncc(=O)n3c2n1C[C@H]3CN1CCC(NCc2cc3c(cn2)OCCC3)CC1 [gepotidacin, (2R)-2-({4-[(3,4-dihydro-2H-pyrano[2,3-c]pyridin-6-ylmethyl)amino]-1-piperidinyl}methyl)-1,2-dihydro-3H,8H-2a,5,8a-triazaacenaphthylene-3,8-dione]",Gepotidacin MIC range,"Veillonella parvula; ceftriaxone R, 1 isolate",≤0.015 µg/mL
same,Gepotidacin MIC range,"Veillonella parvula; clindamycin R, 1 isolate",0.125 µg/mL
same,Gepotidacin MIC range,"Veillonella parvula; moxifloxacin R, 2 isolates",≤0.015 to 0.03 µg/mL
same,Gepotidacin MIC range,"Veillonella parvula; pip/tazo R, 1 isolate",0.03 µg/mL
same,Gepotidacin MIC range,"Bacteroides vulgatus; ceftriaxone R, 7 isolates",≤0.015 to 4 µg/mL
same,Gepotidacin MIC range,"Bacteroides vulgatus; clindamycin R, 4 isolates",≤0.015 to 2 µg/mL
same,Gepotidacin MIC range,"Bacteroides vulgatus; moxifloxacin R, 3 isolates",0.25 to 4 µg/mL
same,Gepotidacin MIC range,[1]; ceftriaxone R,0.125 µg/mL
same,Gepotidacin MIC range,[1]; clindamycin R,0.06 µg/mL
same,Gepotidacin MIC range,[1]; imipenem R,0.125 µg/mL
same,Gepotidacin MIC range,Prevotella buccae; ceftriaxone R,0.25 to 2 µg/mL
same,Gepotidacin MIC range,Prevotella buccae; clindamycin R,0.25 to 4 µg/mL
same,MIC range,[2]; 3 isolates of methicillin-resistant S. saprophyticus,0.06 to 0.5 µg/mL
same,MIC range,[2]; 3 isolates of methicillin-susceptible S. saprophyticus,0.03 to 0.5 µg/mL
same,Mean Dilution Difference,[2]; 25% Urine (pH 7.09) vs CAMHB,0.00
same,Mean difference,[2]; 25% Urine (pH 7.09) vs CAMHB,0.00
same,N(%) ± 1 dilution,[2]; 25% Urine (pH 7.09) vs CAMHB,6 (100%)
same,N(%) ± 2 dilution,[2]; 25% Urine (pH 7.09) vs CAMHB,6 (100%)
same,Mean MIC,[2]; 25% Urine (pH 7.09),0.11 µg/mL
same,Mean Dilution Difference,[2]; 50% Urine (6.99) vs CAMHB,0.00
same,Mean difference,[2]; 50% Urine (6.99) vs CAMHB,0.00
same,N(%) ± 1 dilution,[2]; 50% Urine (6.99) vs CAMHB,6 (100%)
same,N(%) ± 2 dilution,[2]; 50% Urine (6.99) vs CAMHB,6 (100%)
same,Mean MIC,[2]; 50% Urine (6.99),0.11 µg/mL
same,Mean Dilution Difference,[2]; 100% Urine (pH 6.42) vs CAMHB,1.18
same,Mean difference,[2]; 100% Urine (pH 6.42) vs CAMHB,0.14
same,N(%) ± 1 dilution,[2]; 100% Urine (pH 6.42) vs CAMHB,4 (66.7%)
same,N(%) ± 2 dilution,[2]; 100% Urine (pH 6.42) vs CAMHB,6 (100%)
same,Mean MIC,[2]; 100% Urine (pH 6.42),0.24 µg/mL
same,Mean Dilution Difference,[2]; 100% Urine (pH 7.31) vs CAMHB,1.54
same,Mean difference,[2]; 100% Urine (pH 7.31) vs CAMHB,0.21
same,N(%) ± 1 dilution,[2]; 100% Urine (pH 7.31) vs CAMHB,3 (50%)
same,N(%) ± 2 dilution,[2]; 100% Urine (pH 7.31) vs CAMHB,4 (66.7%)
same,Mean MIC,[2]; 100% Urine (pH 7.31),0.31 µg/mL
same,Mean Dilution Difference,[2]; 100% Urine (pH 8.07) vs CAMHB,1.36
same,Mean difference,[2]; 100% Urine (pH 8.07) vs CAMHB,0.17
same,N(%) ± 1 dilution,[2]; 100% Urine (pH 8.07) vs CAMHB,3 (50%)
same,N(%) ± 2 dilution,[2]; 100% Urine (pH 8.07) vs CAMHB,5 (83.3%)
same,Mean MIC,[2]; 100% Urine (pH 8.07),0.28 µg/mL
same,Mean MIC,"[2]; CAMHB (ref. method, pH 7.2)",0.11 µg/mL
same,MIC,"[2]; read-out: MICs, heading: MICs, methicillin-susceptible and methicillin-resistant isolates tested (conclusion)",≤ 0.5 µg/mL
same,MIC,"[2]; at least one strain of methicillin-susceptible or methicillin-resistant S. saprophyticus, read-out: MIC",≤ 0.5 µg/mL
same,MIC fold lower than levofloxacin,[2]; each of the methicillin-resistant S. saprophyticus,4 fold
same,mean dilution differences (range),[2]; gepotidacin in 100% urine (conclusion),1.18-1.54
same,MIC fold lower than levofloxacin,[2]; methicillin-susceptible S. saprophyticus,8-32 fold
same,"Microbiological Failure, n (%) (95% Confidence Interval)",[3]; Follow-up Visit,2 (25) (3-65)
same,"Microbiological Failure, n (%) (95% Confidence Interval)",[3]; TOC Visit,1 (13) (<1-53)
same,reduction in susceptibility to gepotidacin (≥4-fold increase in MIC),[3]; baseline uropathogen vs same uropathogen at subsequent visits,no evidence of reduction in susceptibility; also recorded: No participants developed post-treatment uropathogens with reduced susceptibility
same,Kp,"[4]; alveolar macrophages, read-out: AM AUC(0-12) ratio to unbound plasma",178
same,Kp,"[4]; epithelial lining fluid, read-out: ELF AUC(0-12) ratio to unbound plasma",1.84
same,MIC,[5],1 µg/mL
same,MIC,Acinetobacter pittii,1 µg/mL
same,MIC,E. coli; Participant 2,2 µg/mL
same,MIC,E. coli; Participant 3,0.5 µg/mL
same,MIC,E. coli; Participant 4,2 µg/mL
same,MIC,"E. coli; Participant 5, MDR and fluoroquinolone-resistant",1 µg/mL
same,MIC,"E. coli; Participant 6, MDR",2 µg/mL
same,MIC,C. koseri,0.5 µg/mL
same,MIC,Providencia rettgeri,8 µg/mL
